Test results as given in US20190381086A1, “INHIBITION OF NEDDYLATION USING GLYCYL-tRNA SYNTHETASE INHIBITORS” (The Scripps Research Institute, priority 2015, published 2019).

Key:
RXF 393 = format: cell-based; settings: RXF 393, Renal Cancer
MCF7 = format: cell-based; settings: MCF7, Breast Cancer
MDA-MB-231/ATCC = format: cell-based; settings: Breast Cancer
OVCAR-4 = format: cell-based; settings: OVCAR-4, Ovarian Cancer
SF-268 = format: cell-based; settings: SF-268, CNS Cancer
RPMI-8226 = format: cell-based; settings: RPMI-8226, Leukemia
T-47D = format: cell-based; settings: Breast Cancer
A498 = format: cell-based; settings: A498, Renal Cancer
HCC-2998 = format: cell-based; settings: HCC-2998, Colon Cancer
HOP-92 = assay: NCI 60 Cell One-Dose Screen; format: cell-based, human; settings: HOP-92, Non-Small Cell Lung Cancer; single dose 10^-5 M
EKVX = format: cell-based; settings: Non-Small Cell Lung Cancer
786-0 = format: cell-based; settings: 786-0, Renal Cancer
MOLT-4 = format: cell-based; settings: MOLT-4, Leukemia
K-562 = assay: NCI 60 Cell One-Dose Screen; format: cell-based, human; settings: K-562, Leukemia; single dose 10^-5 M
OVCAR-3 = assay: NCI 60 Cell One-Dose Screen; format: cell-based, human; settings: OVCAR-3, Ovarian Cancer; single dose 10^-5 M
NCI-H23 = format: cell-based; settings: NCI-H23, Non-Small Cell Lung Cancer
PC-3 [1] = format: cell-based; settings: PC-3, Prostate Cancer
A549/ATCC = format: cell-based; settings: Non-Small Cell Lung Cancer
HOP-62 = format: cell-based; settings: HOP-62, Non-Small Cell Lung Cancer
COLO 205 = format: cell-based; settings: COLO 205, Colon Cancer
SK-MEL-28 = format: cell-based; settings: SK-MEL-28, Melanoma
UACC-62 [2] = format: cell-based; settings: UACC-62, Melanoma
UACC-62 [3] = assay: NCI 60 Cell One-Dose Screen; format: cell-based, human; settings: UACC-62, Melanoma; single dose 10^-5 M
SN12C = assay: NCI 60 Cell One-Dose Screen; format: cell-based, human; settings: Renal Cancer, single dose 10^-5 M
SF-295 = format: cell-based; settings: SF-295, CNS Cancer
IGROV1 = format: cell-based; settings: IGROV1, Ovarian Cancer
PC-3 [4] = assay: NCI 60 Cell One-Dose Screen; format: cell-based, human; settings: PC-3, Prostate Cancer; single dose 10^-5 M
UO-31 = format: cell-based; settings: UO-31, Renal Cancer
TK-10 = format: cell-based
MALME-3M = format: cell-based; settings: Melanoma
[5] = Homo sapiens, read-out: LC50 (the source's name)

NCC(=O)NS(=O)(=O)OC[C@H]1O[C@@H](n2cnc3c(N)ncnc32)[C@H](O)[C@@H]1O [GlySA, glycylsulfamoyladenosine]
GI50 (RXF 393; Homo sapiens): 2140 nM
CC50 (RXF 393; [5]): 8320 nM
LC50/GI50 (RXF 393): 3.9
GI50 (MCF7; Homo sapiens): 2820 nM
CC50 (MCF7; [5]): > 100000 nM
LC50/GI50 (MCF7): >35.5
LC50/GI50 (MDA-MB-231/ATCC): 34.7
GI50 (MDA-MB-231/ATCC; Homo sapiens): 525 nM
CC50 (MDA-MB-231/ATCC; [5]): 18200 nM
GI50 (OVCAR-4; Homo sapiens): 389 nM
CC50 (OVCAR-4; [5]): 24000 nM
LC50/GI50 (OVCAR-4): 61.7
GI50 (MDA-MB-468; Homo sapiens, MDA-MB-468): 741 nM
CC50 (MDA-MB-468; Homo sapiens, MDA-MB-468, read-out: LC50 (μM)): 7.59 µM
LC50/GI50 (MDA-MB-468; MDA-MB-468, Breast Cancer): 10.2
GI50 (SF-268; Homo sapiens): 501 nM
LC50/GI50 (SF-268): >199.5
GI50 (RPMI-8226; Homo sapiens): 3310 nM
CC50 (RPMI-8226; [5]): > 100000 nM
LC50/GI50 (RPMI-8226): >30.2
LC50/GI50 (T-47D): >42.7
GI50 (T-47D; Homo sapiens, T47D): 2340 nM
CC50 (T-47D; Homo sapiens, T47D, read-out: LC50 (the source's name)): > 100000 nM
LC50/GI50 (A498): 4.1
GI50 (A498; Homo sapiens): 1580 nM
CC50 (A498; [5]): 6460 nM
LC50/GI50 (HCC-2998): 4.6
GI50 (HCC-2998; Homo sapiens): 2040 nM
CC50 (HCC-2998; [5]): 9330 nM
Growth inhibition count (%) (HOP-92): 17.26%
GI50 (EKVX; Homo sapiens): 2570 nM
LC50/GI50 (EKVX): >38.9
LC50/GI50 (786-0): 3.8
GI50 (786-0; Homo sapiens): 1780 nM
CC50 (786-0; [5]): 6760 nM
GI50 (MOLT-4; Homo sapiens): 2630 nM
CC50 (MOLT-4; [5]): > 100000 nM
LC50/GI50 (MOLT-4): >38.0
Growth inhibition count (%) (K-562): 7.376%
Growth inhibition count (%) (OVCAR-3): 10.05%
GI50 (NCI-H23; Homo sapiens): 2570 nM
CC50 (NCI-H23; [5]): > 100000 nM
LC50/GI50 (NCI-H23): >38.9
GI50 (PC-3 [1]; Homo sapiens): 2630 nM
CC50 (PC-3 [1]; [5]): 56200 nM
LC50/GI50 (PC-3 [1]): 21.4
GI50 (A549/ATCC; Homo sapiens): 2340 nM
CC50 (A549/ATCC; [5]): 19000 nM
LC50/GI50 (A549/ATCC): 8.1
LC50/GI50 (HOP-62): >269.2
GI50 (HOP-62; Homo sapiens): 372 nM
CC50 (HOP-62; [5]): > 100000 nM
LC50/GI50 (COLO 205): 28.2
GI50 (COLO 205; Homo sapiens): 2290 nM
CC50 (COLO 205; [5]): 64600 nM
GI50 (SK-MEL-28; Homo sapiens): 1950 nM
CC50 (SK-MEL-28; [5]): 8910 nM
LC50/GI50 (SK-MEL-28): 4.6
GI50 (UACC-62 [2]; Homo sapiens): 1860 nM
LC50/GI50 (UACC-62 [2]): 4.2
Growth inhibition count (%) (UACC-62 [3]): 30.71%
Growth inhibition count (%) (SN12C): 1.03%
GI50 (SF-295; Homo sapiens): 871 nM
CC50 (SF-295; [5]): 6920 nM
LC50/GI50 (SF-295): 7.9
GI50 (IGROV1; Homo sapiens, IGROV-1): 3020 nM
CC50 (IGROV1; Homo sapiens, IGROV-1, read-out: LC50 (the source's name)): 47900 nM
LC50/GI50 (IGROV1): 15.8
Growth inhibition count (%) (PC-3 [4]): 9.662%
GI50 (UO-31; Homo sapiens): 1700 nM
CC50 (UO-31; [5]): 6170 nM
LC50/GI50 (UO-31): 3.6
GI50 (TK-10; Homo sapiens, TK-10): 2750 nM
CC50 (TK-10; Homo sapiens, TK-10, Renal Cancer, read-out: LC50 (the source's name)): 23400 nM
LC50/GI50 (TK-10; TK-10, Renal Cancer): 8.5
GI50 (MALME-3M; Homo sapiens): 1900 nM
CC50 (MALME-3M; [5]): 7760 nM
LC50/GI50 (MALME-3M): 4.1
